Source: patent US4231928A, “Antibacterial agents” (priority 1979, dated 1980)
Like-named read-outs stand apart in the source and are kept apart here.

What was measured:
Pseudomonas aeruginosa = test: Serial twofold agar dilution (Mueller-Hinton agar), P. aeruginosa; format: cell-based; details: Pseudomonas aeruginosa, Mueller-Hinton agar, read-out: MIC
How it was run: (§1)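 Agar dilution MIC testing is done on Mueller-Hinton medium across twofold concentration steps, with Steers' apparatus used for inoculation. Strains come from a 31-organism screening panel; P. aeruginosa is also tested across 61 isolates.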

S. enteritidis = test: Serial twofold agar dilution (Mueller-Hinton agar), S. enteritidis; format: cell-based
How it was run: as §1

K. pneumoniae = test: Serial twofold agar dilution (Mueller-Hinton agar), K. pneumoniae; format: cell-based
How it was run: as §1

[1] = Mouse blood levels after subcutaneous administration; details: in vivo, sc, 20 mg/kg
Procedure: Mouse blood levels of BB-[…] and BB-[…] were determined by subcutaneous administration of 20 mg/kg of the penicillin to groups of three mice. Blood samples collected from orbital sinuses were assayed by the paper disk agar-diffusion method on Sarcina lutea PC1 1001 plates.

E. cloacae = test: Serial twofold agar dilution (Mueller-Hinton agar), E. cloacae; format: cell-based; details: Enterobacter cloacae
How it was run: as §1

P. morganii = test: Serial twofold agar dilution (Mueller-Hinton agar), P. morganii; format: cell-based
How it was run: as §1

E. coli = test: Serial twofold agar dilution (Mueller-Hinton agar), E. coli; format: cell-based; details: Escherichia coli
How it was run: as §1

SMILES: CC1(C)S[C@@H]2[C@H](NC(=O)[C@H](NC(=O)c3cnc4ccc(O)nn4c3=O)c3ccccc3)C(=O)N2[C@H]1C(=O)O [BB-P598, sodium 6-[D-(-)-α-phenyl-α-(7-hydroxy-4-oxo-4H-pyrimido[1,2-b]pyridazin-3-ylcarboxamido)acetamido]penicillanate]
- MIC (Pseudomonas aeruginosa; Pa-33 A20598, Table 2): 12.5 µg/mL
- MIC (Pseudomonas aeruginosa; Pa-33 A20598, Table 9): 1.6 µg/mL
- MIC (Pseudomonas aeruginosa; Pa-34 A20603, Table 2): 3.1 µg/mL
- MIC (Pseudomonas aeruginosa; Pa-34 A20603, Table 9): 1.6 µg/mL
- MIC (Pseudomonas aeruginosa; Pa-35, Table 2): 12.5 µg/mL
- MIC (Pseudomonas aeruginosa; Pa-35, Table 9): 6.3 µg/mL
- MIC (Pseudomonas aeruginosa; Pa-36, Table 2): 0.4 µg/mL
- MIC (Pseudomonas aeruginosa; Pa-36, Table 9): < 0.2 µg/mL
- MIC (Pseudomonas aeruginosa; Pa-37 A20130, Table 2): 3.1 µg/mL
- MIC (Pseudomonas aeruginosa; Pa-37 A20130, Table 9): 3.1 µg/mL
- MIC (Pseudomonas aeruginosa; Pa-38 A20349, Table 2): 6.3 µg/mL
- MIC (Pseudomonas aeruginosa; Pa-38 A20349, Table 9): 12.5 µg/mL
- MIC (Pseudomonas aeruginosa; Pa-39 A20641, Table 2): 3.1 µg/mL
- MIC (Pseudomonas aeruginosa; Pa-39 A20641, Table 9): 1.6 µg/mL
- MIC (Pseudomonas aeruginosa; Pa-41 A21227, Table 2): 3.1 µg/mL
- MIC (Pseudomonas aeruginosa; Pa-41 A21227, Table 9): 3.1 µg/mL
- MIC (Pseudomonas aeruginosa; Pa-42 A21229, Table 2): 25 µg/mL
- MIC (Pseudomonas aeruginosa; Pa-42 A21229, Table 9): 6.3 µg/mL
- MIC (Pseudomonas aeruginosa; Pa-43 A21233, Table 2): 3.1 µg/mL
- MIC (Pseudomonas aeruginosa; Pa-43 A21233, Table 9): 3.1 µg/mL
- MIC (Pseudomonas aeruginosa; Pa-44 A21274, Table 2): 3.1 µg/mL
- MIC (Pseudomonas aeruginosa; Pa-44 A21274, Table 9): 6.3 µg/mL
- MIC (Pseudomonas aeruginosa; Pa-51 A9910, Table 2): 3.1 µg/mL
- MIC (Pseudomonas aeruginosa; Pa-51 A9910, Table 9): 3.1 µg/mL
- MIC (Pseudomonas aeruginosa; Pa-52 A9926, Table 2): 3.1 µg/mL
- MIC (Pseudomonas aeruginosa; Pa-52 A9926, Table 9): 3.1 µg/mL
- MIC (Pseudomonas aeruginosa; Pa-53 A20126, Table 2): 3.1 µg/mL
- MIC (Pseudomonas aeruginosa; Pa-53 A20126, Table 9): 3.1 µg/mL
- MIC (Pseudomonas aeruginosa; Pa-54 A20128, Table 2): 3.1 µg/mL
- MIC (Pseudomonas aeruginosa; Pa-54 A20128, Table 9): 3.1 µg/mL
- MIC (Pseudomonas aeruginosa; Pa-55 A20227, Table 2): 3.1 µg/mL
- MIC (Pseudomonas aeruginosa; Pa-55 A20227, Table 9): 3.1 µg/mL
- MIC (Pseudomonas aeruginosa; Pa-56 A20228, Table 2): 3.1 µg/mL
- MIC (Pseudomonas aeruginosa; Pa-56 A20228, Table 9): 3.1 µg/mL
- MIC (Pseudomonas aeruginosa; Pa-57 A20546, Table 2): 3.1 µg/mL
- MIC (Pseudomonas aeruginosa; Pa-57 A20546, Table 9): 3.1 µg/mL
- MIC (Pseudomonas aeruginosa; Pa-58 A20557, Table 2): 6.3 µg/mL
- MIC (Pseudomonas aeruginosa; Pa-58 A20557, Table 9): 6.3 µg/mL
- MIC (Pseudomonas aeruginosa; Pa-59 A20574, Table 2): 6.3 µg/mL
- MIC (Pseudomonas aeruginosa; Pa-59 A20574, Table 9): 1.6 µg/mL
- MIC (Pseudomonas aeruginosa; Pa-60 A20602, Table 2): 1.6 µg/mL
- MIC (Pseudomonas aeruginosa; Pa-60 A20602, Table 9): 1.6 µg/mL
- MIC (Pseudomonas aeruginosa; Pa-61 A20726, Table 2): 6.3 µg/mL
- MIC (Pseudomonas aeruginosa; Pa-61 A20726, Table 9): 3.1 µg/mL
- MIC (Pseudomonas aeruginosa; Pa-62 A21213, Table 2): 12.5 µg/mL
- MIC (Pseudomonas aeruginosa; Pa-62 A21213, Table 9): > 100 µg/mL
- MIC (Pseudomonas aeruginosa; Pa-64 A21336, Table 2): 3.1 µg/mL
- MIC (Pseudomonas aeruginosa; Pa-64 A21336, Table 9): 1.6 µg/mL
- MIC (Pseudomonas aeruginosa; Pa-65 A21428, Table 2): 1.6 µg/mL
- MIC (Pseudomonas aeruginosa; Pa-65 A21428, Table 9): 1.6 µg/mL
- MIC (Pseudomonas aeruginosa; Pa-66 A21434, Table 2): 3.1 µg/mL
- MIC (Pseudomonas aeruginosa; Pa-66 A21434, Table 9): 3.1 µg/mL
- MIC (Pseudomonas aeruginosa; Pa-67 A21509, Table 2): 6.3 µg/mL
- MIC (Pseudomonas aeruginosa; Pa-67 A21509, Table 9): 6.3 µg/mL
- MIC (Pseudomonas aeruginosa; Pa-68 A21510, Table 2): 6.3 µg/mL
- MIC (Pseudomonas aeruginosa; Pa-68 A21510, Table 9): 3.1 µg/mL
- MIC (Pseudomonas aeruginosa; Pa-69 A21587, Table 2): 12.5 µg/mL
- MIC (Pseudomonas aeruginosa; Pa-69 A21587, Table 9): 6.3 µg/mL
- MIC (Pseudomonas aeruginosa; Pa-70 K-PS102 (KR-102), Table 9): 3.1 µg/mL
- MIC (Pseudomonas aeruginosa; Pa-70 K-Ps102 (CR-102), Table 2): 3.1 µg/mL
- MIC (S. enteritidis; S. enteritidis A9531, Table 1): 6.3 µg/mL
- MIC (S. enteritidis; Salmonella enterica, S. enteritidis A9531, Table 8, read-out: MIC): 6.3 µg/mL
- MIC (K. pneumoniae; K. pneumoniae A9977, Table 1): 12.5 µg/mL
- MIC (K. pneumoniae; Klebsiella pneumoniae, K. pneumoniae A9977, Table 8, read-out: MIC): 12.5 µg/mL
- concentration at 0.25 h [1]: 3570 ng/mL
- concentration at 0.5 h [1]: 900 ng/mL
- MIC (E. cloacae; E. cloacae A9656, Table 1): 25 µg/mL
- MIC (E. cloacae; E. cloacae A9656, Table 8): 25 µg/mL
- MIC (E. cloacae; E. cloacae A9657, Table 1): 50 µg/mL
- MIC (E. cloacae; E. cloacae A9657, Table 8): 100 µg/mL
- MIC (E. cloacae; E. cloacae A9659, Table 1): 25 µg/mL
- MIC (E. cloacae; E. cloacae A9659, Table 8): 25 µg/mL
- MIC (P. morganii; Morganella morganii, P. morganii A9553, Table 8, read-out: MIC): > 100 µg/mL
- MIC (P. morganii; P. morganii A9553, Table 1): > 100 µg/mL
- MIC (E. coli; E. coli A9635, Table 8, read-out: MIC): 12.5 µg/mL
- MIC (E. coli; E. coli A9844, Table 8, read-out: MIC): 6.3 µg/mL
- MIC (E. coli; E. coli A20366, Table 8, read-out: MIC): > 100 µg/mL
- MIC (E. coli; E. coli A20520, Table 8, read-out: MIC): 3.1 µg/mL
- MIC (E. coli; E. coli A20664, Table 8, read-out: MIC): 0.8 µg/mL
- MIC (E. coli; E. coli A20732, Table 8, read-out: MIC): 50 µg/mL
- MIC (E. coli; E. coli A20898, Table 8, read-out: MIC): > 100 µg/mL
- MIC (E. coli; E. coli Juhl A9435, Table 1): 12.5 µg/mL
- MIC (E. coli; E. coli Juhl A9844, Table 1, read-out: MIC): 3.1 µg/mL
- MIC (E. coli; E. coli Juhl A15119, Table 1, read-out: MIC): 12.5 µg/mL
- MIC (E. coli; E. coli Juhl A15119, Table 8, read-out: MIC): 12.5 µg/mL
- MIC (E. coli; E. coli Juhl A20366, Table 1, read-out: MIC): > 100 µg/mL
- MIC (E. coli; E. coli Juhl A20520, Table 1, read-out: MIC): 1.6 µg/mL
- MIC (E. coli; E. coli Juhl A20664, Table 1, read-out: MIC): 0.8 µg/mL
- MIC (E. coli; E. coli Juhl A20732, Table 1, read-out: MIC): 100 µg/mL
- MIC (E. coli; E. coli Juhl A20898, Table 1, read-out: MIC): > 100 µg/mL
- MIC (E. coli; E. coli NIHJ, Table 1, read-out: MIC): 0.8 µg/mL
- MIC (E. coli; E. coli NIHJ, Table 8, read-out: MIC): 3.1 µg/mL
